Data reported in ChEMBL document CHEMBL3580535, “The biological characteristics of a novel camptothecin-artesunate conjugate” (Bioorg Med Chem Lett, 2015).
Active and inactive are the calls of the source. No cut-off for these calls is given here.

Legend:
[1] = system: MCF7; test: Antitumor activity against human MCF7 cells xenografted in BALB/c nude mouse assessed as decrease in tumor volume at 0.023 mmol/kg, ip administered every 2 days for 3 times measured after day 6; assay type: functional
[2] = system: Mus musculus; test: Toxicity in BALB/c nude mouse assessed as body weight at 0.023 mmol/kg, ip administered every 2 days for 3 times measured on day 6 (reference value: 17.5 to 17.9 gms); assay type: organism-based; conditions: in vivo
[3] = system: Mus musculus; test: Toxicity in BALB/c nude mouse assessed as animal death at 0.023 mmol/kg, ip administered every 2 days for 3 times measured on day 6; assay type: organism-based; conditions: in vivo, 48 h
[4] = system: Mus musculus; test: Toxicity in mouse assessed as body weight loss at 0.43 mmol, ip; assay type: organism-based; conditions: in vivo
[5] = biological target: T1, Albumin (Bos taurus, UniProt P02769); test: Binding affinity to bovine serum albumin assessed as quenching constant at 298K by fluorescence spectroscopy; assay type: ADME; conditions: cattle, isolated protein
T1 sequence (P02769 whole entry): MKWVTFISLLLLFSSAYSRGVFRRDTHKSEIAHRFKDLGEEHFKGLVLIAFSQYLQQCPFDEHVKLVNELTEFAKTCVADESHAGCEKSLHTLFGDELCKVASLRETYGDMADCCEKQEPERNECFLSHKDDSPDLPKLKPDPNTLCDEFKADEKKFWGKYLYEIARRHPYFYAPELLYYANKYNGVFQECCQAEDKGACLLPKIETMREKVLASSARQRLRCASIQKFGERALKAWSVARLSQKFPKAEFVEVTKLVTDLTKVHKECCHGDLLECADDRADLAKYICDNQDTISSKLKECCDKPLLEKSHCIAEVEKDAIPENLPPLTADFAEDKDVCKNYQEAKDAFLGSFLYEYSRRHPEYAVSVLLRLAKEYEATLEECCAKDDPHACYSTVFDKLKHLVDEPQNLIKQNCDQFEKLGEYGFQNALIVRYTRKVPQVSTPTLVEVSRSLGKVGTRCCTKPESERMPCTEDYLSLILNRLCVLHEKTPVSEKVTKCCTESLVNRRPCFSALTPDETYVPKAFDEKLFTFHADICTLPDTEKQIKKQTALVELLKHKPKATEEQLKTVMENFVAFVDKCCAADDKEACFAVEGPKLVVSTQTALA

[6] = system: SMMC-7721; test: Cytotoxicity against human SMMC7721 cells assessed as inhibition of cell viability after 48 hrs by MTT assay; assay type: functional, cell-based
[7] = biological target: T1, Albumin; test: Binding affinity to bovine serum albumin assessed as Stem-Volmer quenching constant at 298K by fluorescence spectroscopy; assay type: ADME; conditions: cattle, isolated protein
[8] = biological target: T1, Albumin; test: Binding affinity to bovine serum albumin assessed as quenching constant at 310K by fluorescence spectroscopy; assay type: ADME; conditions: cattle, isolated protein
[9] = biological target: Serotransferrin (Homo sapiens) (UniProt P02787); test: Binding affinity to transferrin (unknown origin) assessed as Stem-Volmer quenching constant at 298K by fluorescence spectroscopy
Serotransferrin (Homo sapiens), sequence (P02787 whole entry): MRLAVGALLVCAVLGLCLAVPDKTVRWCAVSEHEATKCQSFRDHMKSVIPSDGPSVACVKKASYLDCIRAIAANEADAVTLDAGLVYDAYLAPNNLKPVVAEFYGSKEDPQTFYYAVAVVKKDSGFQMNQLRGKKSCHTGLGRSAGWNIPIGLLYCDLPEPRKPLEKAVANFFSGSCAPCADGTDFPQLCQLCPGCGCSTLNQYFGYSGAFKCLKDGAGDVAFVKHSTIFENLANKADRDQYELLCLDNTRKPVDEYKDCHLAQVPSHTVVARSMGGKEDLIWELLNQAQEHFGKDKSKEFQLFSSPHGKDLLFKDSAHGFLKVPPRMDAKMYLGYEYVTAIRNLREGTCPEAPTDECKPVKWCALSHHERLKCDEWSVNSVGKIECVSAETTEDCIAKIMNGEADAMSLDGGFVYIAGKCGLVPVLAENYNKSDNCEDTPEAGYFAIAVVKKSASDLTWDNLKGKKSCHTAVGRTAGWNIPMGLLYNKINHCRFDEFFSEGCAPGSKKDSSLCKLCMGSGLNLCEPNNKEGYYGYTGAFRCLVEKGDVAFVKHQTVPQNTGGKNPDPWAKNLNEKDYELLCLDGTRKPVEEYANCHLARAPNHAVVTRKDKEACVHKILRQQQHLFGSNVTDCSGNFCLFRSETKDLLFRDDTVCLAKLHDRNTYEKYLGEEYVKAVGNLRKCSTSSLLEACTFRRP

[10] = biological target: Serotransferrin (Homo sapiens) (UniProt P02787); test: Binding affinity to transferrin (unknown origin) assessed as Stem-Volmer quenching constant at 310K by fluorescence spectroscopy
[11] = system: Mus musculus; test: Toxicity in mouse assessed as animal death at 0.43 mmol, ip; assay type: organism-based; conditions: in vivo
[12] = biological target: Serotransferrin (Homo sapiens) (UniProt P02787); test: Effect on transferrin (unknown origin) conformation at 4 to 20 uM by synchronous fluorescence spectroscopy
[13] = system: MCF7; test: Cytotoxicity against human MCF7 cells assessed as inhibition of cell viability after 48 hrs by MTT assay; assay type: functional, cell-based
[14] = biological target: T1, Albumin; test: Binding affinity to bovine serum albumin assessed as Stem-Volmer quenching constant at 310K by fluorescence spectroscopy; assay type: ADME; conditions: cattle, isolated protein
[15] = system: Mus musculus; test: Toxicity in mouse assessed as animal death at 0.43 to 1.72 mmol, ip; assay type: organism-based; conditions: in vivo
[16] = Half life in PBS solution at pH 7.4; assay type: ADME
[17] = system: Mus musculus; test: Toxicity in mouse assessed as body weight loss at 1.72 mmol, ip; assay type: organism-based; conditions: in vivo
[18] = Half life in mouse plasma; assay type: ADME, cell-free

Row | Compound | inhibition in vivo at 23 µmol/kg [1] | Activity [2] | Activity [3] | Activity [4] | Kq [5] | inhibition [6] | KSV [7] | Kq [8] | KSV [9] | KSV [10] | Activity [11] | Activity [12] | inhibition [13] | KSV [14] | Activity [15] | half-life [16] | Activity [17] | half-life [18]
1 | CC[C@@]1(O)C(=O)OCc2c1cc1n(c2=O)Cc2cc3c(CN(C)C)c(O)ccc3nc2-1 [TOPOTECAN] | 70.2% | 13.6 g | Toxic | – | – | – | – | – | – | – | – | – | – | – | – | – | – | –
2 | CC[C@@]1(O)C(=O)OCc2c1cc1n(c2=O)Cc2cc3ccccc3nc2-1 [CAMPTOTHECIN] | 45.3% | 11.3 g | Toxic | Toxic | 3.626 ×10¹² L/mol/s | Active | 3.626 ×10⁴ L/mol | 3.345 ×10¹² L/mol/s | 4.35 ×10⁴ L/mol | 2.62 ×10⁴ L/mol | Toxic | inactive | Active | 3.345 ×10⁴ L/mol | – | – | – | –
3 | C[C@H]1[C@H](OC(=O)CCC(=O)O)O[C@@H]2O[C@@]3(C)CC[C@H]4[C@H](C)CC[C@@H]1[C@@]24OO3 [ARTESUNATE] | – | 16.1 g | Non-toxic | Toxic | – | Active | – | – | – | – | – | – | Active | – | – | – | – | –
4 | CC[C@@]1(OC(=O)CCC(=O)O[C@@H]2O[C@@H]3O[C@@]4(C)CC[C@H]5[C@H](C)CC[C@@H]([C@H]2C)[C@@]35OO4)C(=O)OCc2c1cc1n(c2=O)Cc2cc3c(CN(C)C)c(O)ccc3nc2-1 | 50.2% | 15.5 g | Non-toxic | – | 2.27 ×10¹² L/mol/s | Dose-dependent effect | 2.27 ×10⁴ L/mol | 1.03 ×10¹² L/mol/s | 2.36 ×10⁴ L/mol | 2.22 ×10⁴ L/mol | – | inactive | Dose-dependent effect | 1.03 ×10⁴ L/mol | Non-toxic | 15 h | Toxic | 4 h
